Measurements from the NIST ThermoML archive (doi:10.1016/j.tca.2015.12.007).
Where “and” joins values, the source holds several entries; their conditions need not be identical. Identical values can stand only once.

Assays:
[1] = Crystal, Calculated from knudsen effusion weight loss
[2] = molar enthalpy of vaporization or sublimation; details: 298.15 K; Crystal; Static calorimetry

CC(C)C1C(=O)NC(=O)NC1=O [5-isopropylbarbituric acid]
[1]
Details	vapor or sublimation pressure
369.16 K	0.000115 kPa and 0.000107 kPa and 0.000106 kPa
371.12 K	0.000138 kPa and 0.000135 kPa
373.08 K	0.000167 kPa and 0.000169 kPa and 0.000166 kPa
375.16 K	0.000204 kPa and 0.000202 kPa and 0.000216 kPa
377.12 K	0.000254 kPa and 0.000251 kPa and 0.000257 kPa
379.09 K	0.000314 kPa and 0.000311 kPa and 0.000303 kPa
381.16 K	0.000371 kPa and 0.00037 kPa and 0.000389 kPa
383.11 K	0.000461 kPa and 0.000453 kPa and 0.000465 kPa
385.09 K	0.000559 kPa and 0.000555 kPa and 0.000554 kPa
387.15 K	0.000674 kPa and 0.000675 kPa and 0.000708 kPa
389.13 K	0.000839 kPa and 0.000843 kPa and 0.000844 kPa
391.11 K	0.000998 kPa and 0.001017 kPa and 0.001009 kPa

Details	molar enthalpy [kcal/mol]
[2]	29.9
